Data: PMC5011961, “In vitro antimicrobial activities of animal-used quinoxaline 1,4-di-N-oxides against mycobacteria, mycoplasma and fungi” (BMC Veterinary Research, 2016)
In brackets after ≈: the same amount, converted by molar mass. Where two headings read alike, the source gives them in different places.

Legend:
M. bovis ATCC 19210 = test: microbe, parasite or virus in culture; format: cell-based, Mycobacterium bovis; conditions: Mycobacterium tuberculosis variant bovis, ATCC19210
[1] = system: M. tuberculosis H37Rv ATCC 27294; test: Microdilution alamar blue assay (MABA); format: cell-based, Mycobacterium tuberculosis; conditions: Mycobacterium tuberculosis, read-out: MIC
Mycoplasma gallisepticum = test: Combination susceptibility assay (checkerboard method); format: cell-based; conditions: combined with tetracyclines (tetracycline and doxycycline), M. gallisepticum
M. tuberculosis complex = test: Combination susceptibility assay (checkerboard method), overall statements; format: cell-based; conditions: combined with rifampicin
PRRSV = test: Antiviral assay (CPE/MTT; adsorption inhibition, infection inhibition, virucidal); format: cell-based, porcine reproductive and respiratory syndrome virus; parameters: key to IC50: “--”represent not detected owing to the low inhibition ratio; conditions: PRRSV, mean±SD of four experiments
PPV = test: as above; format: cell-based, porcine parvovirus; parameters: key to IC50: “--” represent not detected owing to the low inhibition ratio; conditions: PPV, mean±SD of four experiments
IBDV = test: as above; format: cell-based, infectious bursal disease virus; parameters: key to IC50: “--” represent not detected owing to the low inhibition ratio; conditions: IBDV, mean±SD of four experiments
[2] = system: M. tuberculosis H37Rv ATCC 27294; parameters: method as in PMID 14561478; conditions: previous report; cited from earlier work
PK-15 cells = test: Cytotoxicity assay (MTT)
Marc-145 cells = test: Cytotoxicity assay (MTT)
DF-1 cells = test: Cytotoxicity assay (MTT)
[3] = system: M. tuberculosis H37Ra ATCC 25177; test: Microdilution alamar blue assay (MABA)
Method: Briefly, each of the above Mycobacterium strains was cultured at 37 °C in Middlebrook 7H9 broth supplemented with 0.2 % glycerol and 10 % Oleic Acid-Albumin-Dextrose-Catalase (Sigma, St Louis, MO, USA) until logarithmic growth was reached. About 6 × 10^6 CFU/mL inoculum of Mycobacterium strain was then added to the two fold serially diluted drug samples. The final concentration of DMSO in all assays was 2.5 % or less and this dilution also served as solvent control. The samples were assayed in triplicate. All tests were carried out in sterile flat bottom 96-well microplates. Each microplate was incubated for 5 days at 37 °C in a sealed plastic CO2-permeable bag. After 7 days of incubation, 32 μL of a mixture of freshly prepared Alamar Blue solution and 20 % sterile Tween-80 at 1:1 (v/v) were added to the growth-control well. The microplates were incubated at 37 °C for 24 h. […] A well-defined pink color was interpreted as positive bacterial growth, whereas a blue color indicated an absence of growth.

M. gallisepticum = test: Antimycoplasma assay, MIC in microtiter plates; conditions: Mycoplasmoides gallisepticum
Method: (§1) Briefly, 96-well microtiter Sensititre plates containing stabilized and freeze-dried antimicrobials were used. Three wells on each plate were set as antimicrobial free growth control. Freshly thawed mycoplasma isolates with known titers were diluted in liquid medium until the number of organisms reached 10^4 color changing units/mL. 50 μL of the diluted culture was transferred into each well of the Sensititre plates. […] The plates were sealed using an adhesive foil and incubated at 36 °C for 14 days. The growth of M. hyopneumoniae was observed daily when the color of the medium changed from red to yellow (phenol red indicator), and the initial and final MICs were recorded.

M. hyopneumoniae = test: Antimycoplasma assay, MIC in microtiter plates; conditions: Mesomycoplasma hyopneumoniae
Method: as §1

Microsporum canis = test: Antifungal assay, macrobroth 2-fold serial dilution MIC
Trichophyton rubrum = test: as above
Epidermophyton floccosum = test: as above
Candida albicans = test: as above
Candida tropicalis = test: as above; conditions: Candida tropicalis
Candida parapsilosis = test: as above; conditions: Lodderomyces parapsilosis
Cryptococcus neoformans = test: as above
Aspergillus fumigatus = test: as above

With CC(=O)c1c(C)[n+]([O-])c2ccccc2[n+]1[O-] [MEQ, mequindox] as the compound, how does the MIC (M. bovis ATCC 19210) read?
Its MIC is 8 µg/mL (≈ 36.7 µM).

And the MIC [1]?
The MIC was 4 µg/mL (≈ 18.3 µM).

And the Combined effect (Mycoplasma gallisepticum)?
Its Combined effect is “additive (0.5 to 1, additive)”.

What about the FIC (M. tuberculosis complex) of the same compound?
Its FIC is 0.75.

And the IC50 (PRRSV; Inactivation)?
The IC50 was “--”.

What about the IC50 (PRRSV; Prevention) of the same compound?
The IC50 was “--”.

What about the IC50 (PRRSV; Treatment) of the same compound?
The IC50 was “--”.

What about the IC50 (PPV; Inactivation) of the same compound?
Its IC50 is “--”.

And the IC50 (PPV; Prevention)?
Its IC50 is “--”.

And the IC50 (PPV; Treatment)?
The IC50 was “--”.

What about the IC50 (IBDV; Inactivation) of the same compound?
The IC50 was “--”.

What about the IC50 (IBDV; Prevention) of the same compound?
Its IC50 is “--”.

And the IC50 (IBDV; Treatment)?
Its IC50 is “--”.

What about the MIC [2] of the same compound?
Its MIC is 3.13 µg/mL (≈ 14.3 µM).

And the TC50 (PK-15 cells; PK-15, 72 h, MTT, mean ± SD, n = 4)?
The TC50 was 17.86 ± 1.28 µg/mL (≈ 81.8 µM).

What about the MNTC (PK-15 cells; PK-15, maximum non-cytotoxic concentration (90 % cell viability)) of the same compound?
The MNTC was 0.5 µg/mL.

What about the TC50 (Marc-145 cells; Marc-145, 72 h, MTT, mean ± SD, n = 4) of the same compound?
Its TC50 is 41.28 ± 1.28 µg/mL (≈ 189 µM).

And the MNTC (Marc-145 cells; Marc-145, maximum non-cytotoxic concentration (90 % cell viability))?
Its MNTC is 1.0 µg/mL.

And the TC50 (DF-1 cells; DF-1, 72 h, MTT, mean ± SD, n = 4)?
Its TC50 is 40.01 ± 1.27 µg/mL (≈ 183 µM).

And the MNTC (DF-1 cells; DF-1, maximum non-cytotoxic concentration (90 % cell viability))?
Its MNTC is 2.0 µg/mL.

And the MIC [3]?
The MIC was 32 µg/mL (≈ 147 µM).

What about the MIC (M. gallisepticum; M. gallisepticum BG44T (10^4ccu/mL)) of the same compound?
Its MIC is 16 µg/mL (≈ 73.3 µM).

And the MIC (M. gallisepticum; M. gallisepticum MG-HS (10^6ccu/mL))?
The MIC was 32 µg/mL (≈ 147 µM).

What about the MIC (M. gallisepticum; M. gallisepticum PG31 (10^8 ccu/mL)) of the same compound?
Its MIC is 16 µg/mL (≈ 73.3 µM).

And the MIC (M. hyopneumoniae)?
Its MIC is 32 µg/mL (≈ 147 µM).

What about the MIC (Microsporum canis) of the same compound?
Its MIC is over 64 µg/mL.

And the MIC (Microsporum canis; CBS113480)?
Its MIC is over 64 µg/mL.

What about the MIC (Trichophyton rubrum) of the same compound?
Its MIC is over 64 µg/mL.

And the MIC (Trichophyton rubrum; ATCC4438)?
The MIC was over 64 µg/mL.

And the MIC (Epidermophyton floccosum)?
Its MIC is over 64 µg/mL.

What about the MIC (Epidermophyton floccosum; CBS566094) of the same compound?
The MIC was 64 µg/mL (≈ 293 µM).

What about the MIC (Candida albicans; C. albicans 2.4122, deep fungi) of the same compound?
Its MIC is 32 µg/mL (≈ 147 µM).

And the MIC (Candida albicans; C. albicans 90028, deep fungi)?
The MIC was 64 µg/mL (≈ 293 µM).

What about the MIC (Candida tropicalis; C. tropicalis 2.2735, deep fungi) of the same compound?
The MIC was 64 µg/mL (≈ 293 µM).

What about the MIC (Candida tropicalis; C. tropicalis 7349, deep fungi) of the same compound?
Its MIC is over 64 µg/mL.

And the MIC (Candida parapsilosis)?
The MIC was 64 µg/mL (≈ 293 µM).

What about the MIC (Cryptococcus neoformans) of the same compound?
Its MIC is 32 µg/mL (≈ 147 µM).

And the MIC (Aspergillus fumigatus; A. fumigatus 3.5301, deep fungi)?
Its MIC is over 64 µg/mL.

And the MIC (Aspergillus fumigatus; A. fumigatus 3.5352, deep fungi)?
The MIC was over 64 µg/mL.
